Laboratory results from patent US20110152362A1, “METHODS OF TREATING EPILEPTOGENESIS AND EPILEPSY” (priority 2004, published 2011).
Marks after values point to notes of the source that are not given here.

Test system: rats subjected to li-pilo SE
Experiment: Example 2: quantification of cell densities 14 days after li-pilo SE;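 also: Thionine-stained 20 µm brain sections, neurons with cell bodies above 10 µm counted, value is the mean of 12 fields per structure from three adjacent sections, both sides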
Conditions: for number of neuronal cell bodies: Amygdala Basolateral / number of neuronal cell bodies: Amygdala Medial, dorsal anterior / number of neuronal cell bodies: Amygdala Medial, ventral posterior / number of neuronal cell bodies: Cerebral cortex Entorhinal, layer II, dorsal / number of neuronal cell bodies: Cerebral cortex Entorhinal, layer II, ventral / number of neuronal cell bodies: Cerebral cortex Entorhinal, layer III/IV, dorsal / number of neuronal cell bodies: Cerebral cortex Entorhinal, layer III/IV, ventral / number of neuronal cell bodies: Cerebral cortex Piriform, layer II, dorsal / number of neuronal cell bodies: Cerebral cortex Piriform, layer II, ventral / number of neuronal cell bodies: Cerebral cortex Piriform, layer III / number of neuronal cell bodies: Hippocampus CA1 area / number of neuronal cell bodies: Hippocampus CA3 area / number of neuronal cell bodies: Hippocampus Hilus / number of neuronal cell bodies: Thalamus Central medial / number of neuronal cell bodies: Thalamus Dorsolateral, medial, dorsal / number of neuronal cell bodies: Thalamus Dorsolateral, ventral lateral / number of neuronal cell bodies: Thalamus Mediodorsal central / number of neuronal cell bodies: Thalamus Mediodorsal lateral / number of neuronal cell bodies: Thalamus Mediodorsal medial: 14 days after li-pilo SE
Experimental: All rats received lithium chloride (3 meq/kg, i.p., Sigma, St Louis, Mo., U.S.A.) and about 20 h later, all animals received also methylscopolamine bromide (1 mg/kg, s.c., Sigma) that was administered to limit the peripheral effects of the convulsant. […] The effects of increasing doses of TC were studied in 5 groups of rats. […] The control group received vehicle instead of pilocarpine and TC.
For neuronal counting, animals were deeply anesthetized with 1.8 g/kg pentobarbital (Dolethal®, Vetoquinol, Lure, France). Brains were then removed and frozen. Serial 20 μm slices were cut in a cryostat, air-dried during several days before thionine staining. […] The grid of counting was placed on a well defined area of the cerebral structure of interest and counting was carried out with a microscopic enlargement of 200- or 400-fold defined for each single cerebral structure. Cell counts were performed twice on each side of three adjacent sections for each region by a single observer unaware of the animal's treatment. The number of cells obtained in the 12 counted fields in each cerebral structure was averaged. This procedure was used to minimize the potential errors that could result from double counting leading to overestimation of cell numbers. […] Counts involved only neurons with cell bodies larger than 10 μm. Cells with small cell bodies were considered as glial cells and were not counted.
For neuronal damage and epileptogenesis, statistical analysis between groups was performed by means of a one-way analysis of variance followed by a post-hoc Dunnett or Fisher test using the Statistica software.

NC(=O)OC[C@@H](O)c1ccccc1Cl [TC]
protective effects at lowest dose tested in Example 2 (30 mg/kg): some measurable protective effects | neuronal drop out, layer II of the dorsal piriform cortex (TC 60 mg/kg, 14 days after SE): 25% | damage remaining, ventral entorhinal cortex layer II (TC 90 mg/kg, 14 days after SE): 4% | damage remaining, ventral entorhinal cortex layers III/IV (TC 90 mg/kg, 14 days after SE): 17% | neuronal density in piriform cortex, % of control levels (TC 120 mg/kg, 14 days after SE): 78-96 % of control levels | neurons surviving in entorhinal cortex, dorsal and ventral (TC 120 mg/kg, 14 days after SE): 85-94% | cell loss (drop out) in the hilus of dentate gyrus (TC30, 60 and 90 groups (range also covers DZP), 14 days after SE): 61-66% | cell loss, CA1 pyramidal cell layer (TC30, 60 or 90 rats, 14 days after SE): 36-47% | cell loss, CA1 pyramidal cell layer (TC120 group, 14 days after SE): 12% | neuronal loss in the hilus of dentate gyrus (TC120 group, 14 days after SE): 53% | neuronal drop out in thalamic nuclei (TC120 rats, 14 days after SE): 4-19% | number of neurons in all amygdala nuclei, % of the control level (highest dose, 120 mg/kg, 14 days after SE): 86-99 % of the control level | number of neuronal cell bodies: Amygdala Basolateral (pilo-TC30 (TC 30 mg/kg)): 27.3 ± 4.9**° | number of neuronal cell bodies: Amygdala Medial, dorsal anterior (pilo-TC30 (TC 30 mg/kg)): 46.8 ± 5.0 | number of neuronal cell bodies: Amygdala Medial, ventral posterior (pilo-TC30 (TC 30 mg/kg)): 22.3 ± 1.8 | number of neuronal cell bodies: Cerebral cortex Entorhinal, layer II, dorsal (pilo-TC30 (TC 30 mg/kg)): 23.4 ± 0.6 | number of neuronal cell bodies: Cerebral cortex Entorhinal, layer II, ventral (pilo-TC30 (TC 30 mg/kg)): 22.7 ± 0.9 | number of neuronal cell bodies: Cerebral cortex Entorhinal, layer III/IV, dorsal (pilo-TC30 (TC 30 mg/kg)): 22.3 ± 0.5 | number of neuronal cell bodies: Cerebral cortex Entorhinal, layer III/IV, ventral (pilo-TC30 (TC 30 mg/kg)): 13.2 ± 1.9 | number of neuronal cell bodies: Cerebral cortex Piriform, layer II, dorsal (pilo-TC30 (TC 30 mg/kg)): 15.7 ± 2.9 | number of neuronal cell bodies: Cerebral cortex Piriform, layer II, ventral (pilo-TC30 (TC 30 mg/kg)): 7.2 ± 3.8 | number of neuronal cell bodies: Cerebral cortex Piriform, layer III (pilo-TC30 (TC 30 mg/kg)): 1.8 ± 1.8 | number of neuronal cell bodies: Hippocampus CA1 area (pilo-TC30 (TC 30 mg/kg)): 39.3 ± 44**°° | number of neuronal cell bodies: Hippocampus CA3 area (pilo-TC30 (TC 30 mg/kg)): 35.7 ± 1.8 | number of neuronal cell bodies: Hippocampus Hilus (pilo-TC30 (TC 30 mg/kg)): 33.0 ± 3.2 | number of neuronal cell bodies: Thalamus Central medial (pilo-TC30 (TC 30 mg/kg)): 75.6 ± 7.7 | number of neuronal cell bodies: Thalamus Dorsolateral, medial, dorsal (pilo-TC30 (TC 30 mg/kg)): 64.2 ± 9.3**°° | number of neuronal cell bodies: Thalamus Dorsolateral, ventral lateral (pilo-TC30 (TC 30 mg/kg)): 8.8 ± 2.8 | number of neuronal cell bodies: Thalamus Mediodorsal central (pilo-TC30 (TC 30 mg/kg)): 26.9 ± 0.6 | number of neuronal cell bodies: Thalamus Mediodorsal lateral (pilo-TC30 (TC 30 mg/kg)): 20.5 ± 0.7 | number of neuronal cell bodies: Thalamus Mediodorsal medial (pilo-TC30 (TC 30 mg/kg)): 11.5 ± 2.5 | number of neuronal cell bodies: Amygdala Basolateral (pilo-TC60 (TC 60 mg/kg)): 27.8 ± 4.3**°° | number of neuronal cell bodies: Amygdala Medial, dorsal anterior (pilo-TC60 (TC 60 mg/kg)): 58.4 ± 2.8**° | number of neuronal cell bodies: Amygdala Medial, ventral posterior (pilo-TC60 (TC 60 mg/kg)): 26.2 ± 2.9 | number of neuronal cell bodies: Cerebral cortex Entorhinal, layer II, dorsal (pilo-TC60 (TC 60 mg/kg)): 23.9 ± 0.5 | number of neuronal cell bodies: Cerebral cortex Entorhinal, layer II, ventral (pilo-TC60 (TC 60 mg/kg)): 23.3 ± 0.8 | number of neuronal cell bodies: Cerebral cortex Entorhinal, layer III/IV, dorsal (pilo-TC60 (TC 60 mg/kg)): 23.2 ± 0.8 | number of neuronal cell bodies: Cerebral cortex Entorhinal, layer III/IV, ventral (pilo-TC60 (TC 60 mg/kg)): 16.5 ± 2.2 | number of neuronal cell bodies: Cerebral cortex Piriform, layer II, dorsal (pilo-TC60 (TC 60 mg/kg)): 27.5 ± 2.8**°° | number of neuronal cell bodies: Cerebral cortex Piriform, layer II, ventral (pilo-TC60 (TC 60 mg/kg)): 13.7 ± 4.2 | number of neuronal cell bodies: Cerebral cortex Piriform, layer III (pilo-TC60 (TC 60 mg/kg)): 6.4 ± 2.3 | number of neuronal cell bodies: Hippocampus CA1 area (pilo-TC60 (TC 60 mg/kg)): 31.9 ± 44**°° | number of neuronal cell bodies: Hippocampus CA3 area (pilo-TC60 (TC 60 mg/kg)): 31.6 ± 1.4 | number of neuronal cell bodies: Hippocampus Hilus (pilo-TC60 (TC 60 mg/kg)): 32.8 ± 3.3 | number of neuronal cell bodies: Thalamus Central medial (pilo-TC60 (TC 60 mg/kg)): 83.7 ± 9.6 | number of neuronal cell bodies: Thalamus Dorsolateral, medial, dorsal (pilo-TC60 (TC 60 mg/kg)): 77.5 ± 3.9**°° | number of neuronal cell bodies: Thalamus Dorsolateral, ventral lateral (pilo-TC60 (TC 60 mg/kg)): 56.7 ± 8.7 | number of neuronal cell bodies: Thalamus Mediodorsal central (pilo-TC60 (TC 60 mg/kg)): 24.1 ± 1**^ | number of neuronal cell bodies: Thalamus Mediodorsal lateral (pilo-TC60 (TC 60 mg/kg)): 18.9 ± 0.6 | number of neuronal cell bodies: Thalamus Mediodorsal medial (pilo-TC60 (TC 60 mg/kg)): 19.1 ± 2.6 | number of neuronal cell bodies: Amygdala Basolateral (pilo-TC90 (TC 90 mg/kg)): 40.7 ± 1.6°° | number of neuronal cell bodies: Amygdala Medial, dorsal anterior (pilo-TC90 (TC 90 mg/kg)): 72.2 ± 5.7°° | number of neuronal cell bodies: Amygdala Medial, ventral posterior (pilo-TC90 (TC 90 mg/kg)): 30.7 ± 3.7°° | number of neuronal cell bodies: Cerebral cortex Entorhinal, layer II, dorsal (pilo-TC90 (TC 90 mg/kg)): 26.3 ± 0.9 | number of neuronal cell bodies: Cerebral cortex Entorhinal, layer II, ventral (pilo-TC90 (TC 90 mg/kg)): 25.4 ± 1.1°^ | number of neuronal cell bodies: Cerebral cortex Entorhinal, layer III/IV, dorsal (pilo-TC90 (TC 90 mg/kg)): 26.7 ± 0.8 | number of neuronal cell bodies: Cerebral cortex Entorhinal, layer III/IV, ventral (pilo-TC90 (TC 90 mg/kg)): 23.7 ± 1.5°° | number of neuronal cell bodies: Cerebral cortex Piriform, layer II, dorsal (pilo-TC90 (TC 90 mg/kg)): 32.4 ± 1.1°° | number of neuronal cell bodies: Cerebral cortex Piriform, layer II, ventral (pilo-TC90 (TC 90 mg/kg)): 18.4 ± 4.0°° | number of neuronal cell bodies: Cerebral cortex Piriform, layer III (pilo-TC90 (TC 90 mg/kg)): 9 ± 3.0°° | number of neuronal cell bodies: Hippocampus CA1 area (pilo-TC90 (TC 90 mg/kg)): 47.7 ± 6.6*° | number of neuronal cell bodies: Hippocampus CA3 area (pilo-TC90 (TC 90 mg/kg)): 35.1 ± 2.9 | number of neuronal cell bodies: Hippocampus Hilus (pilo-TC90 (TC 90 mg/kg)): 37.5 ± 3.1 | number of neuronal cell bodies: Thalamus Central medial (pilo-TC90 (TC 90 mg/kg)): 88.2 ± 8.5^ | number of neuronal cell bodies: Thalamus Dorsolateral, medial, dorsal (pilo-TC90 (TC 90 mg/kg)): 79.4 ± 3.1**°° | number of neuronal cell bodies: Thalamus Dorsolateral, ventral lateral (pilo-TC90 (TC 90 mg/kg)): 71.8 ± 5.3°°* | number of neuronal cell bodies: Thalamus Mediodorsal central (pilo-TC90 (TC 90 mg/kg)): 27.4 ± 1.5^ | number of neuronal cell bodies: Thalamus Mediodorsal lateral (pilo-TC90 (TC 90 mg/kg)): 22 ± 1.2*° | number of neuronal cell bodies: Thalamus Mediodorsal medial (pilo-TC90 (TC 90 mg/kg)): 23.1 ± 2.8°° | number of neuronal cell bodies: Amygdala Basolateral (pilo-TC120 (TC 120 mg/kg)): 42.7 ± 1.3°° | number of neuronal cell bodies: Amygdala Medial, dorsal anterior (pilo-TC120 (TC 120 mg/kg)): 80.2 ± 2.6°° | number of neuronal cell bodies: Amygdala Medial, ventral posterior (pilo-TC120 (TC 120 mg/kg)): 34.7 ± 1.7°° | number of neuronal cell bodies: Cerebral cortex Entorhinal, layer II, dorsal (pilo-TC120 (TC 120 mg/kg)): 27.3 ± 0.5°° | number of neuronal cell bodies: Cerebral cortex Entorhinal, layer II, ventral (pilo-TC120 (TC 120 mg/kg)): 25.1 ± 0.6^ | number of neuronal cell bodies: Cerebral cortex Entorhinal, layer III/IV, dorsal (pilo-TC120 (TC 120 mg/kg)): 26.4 ± 0.7°° | number of neuronal cell bodies: Cerebral cortex Entorhinal, layer III/IV, ventral (pilo-TC120 (TC 120 mg/kg)): 24.5 ± 1.4°° | number of neuronal cell bodies: Cerebral cortex Piriform, layer II, dorsal (pilo-TC120 (TC 120 mg/kg)): 35.2 ± 1.1°° | number of neuronal cell bodies: Cerebral cortex Piriform, layer II, ventral (pilo-TC120 (TC 120 mg/kg)): 30.5 ± 1.3°° | number of neuronal cell bodies: Cerebral cortex Piriform, layer III (pilo-TC120 (TC 120 mg/kg)): 15 ± 2.2°° | number of neuronal cell bodies: Hippocampus CA1 area (pilo-TC120 (TC 120 mg/kg)): 65.5 ± 2.9°° | number of neuronal cell bodies: Hippocampus CA3 area (pilo-TC120 (TC 120 mg/kg)): 39.8 ± 1.5 | number of neuronal cell bodies: Hippocampus Hilus (pilo-TC120 (TC 120 mg/kg)): 44.8 ± 2.9 | number of neuronal cell bodies: Thalamus Central medial (pilo-TC120 (TC 120 mg/kg)): 108.2 ± 6.6° ^ | number of neuronal cell bodies: Thalamus Dorsolateral, medial, dorsal (pilo-TC120 (TC 120 mg/kg)): 89.8 ± 3.7*° | number of neuronal cell bodies: Thalamus Dorsolateral, ventral lateral (pilo-TC120 (TC 120 mg/kg)): 79.0 ± 4.7°° | number of neuronal cell bodies: Thalamus Mediodorsal central (pilo-TC120 (TC 120 mg/kg)): 29.9 ± 1.7°^ | number of neuronal cell bodies: Thalamus Mediodorsal lateral (pilo-TC120 (TC 120 mg/kg)): 24.4 ± 1.1°° | number of neuronal cell bodies: Thalamus Mediodorsal medial (pilo-TC120 (TC 120 mg/kg)): 28.6 ± 0.8°°
